# According to patent US10138255B2, “Piperazine derivatives as HIV protease inhibitors” (Merck Sharp & Dohme Corp., priority 2014, dated 2018):
# Test system: HIV-1 (H9IIIB strain)
# Experiment: Cell-Based HIV Infection Assay Using a Reporter (MT4-GFP cells)
# Conditions: Human immunodeficiency virus 1, inflection point (IP) of viral growth inhibition; MT4-GFP cells infected with HIV-1 H9IIIB; 50% normal human serum; mean of at least two independent experiments; read-out: Cell Based IP (50% NHS)
# Procedure, shortened: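 MT4-GFP cells (HIV LTR-driven GFP) bulk-infected with HIV-1 H9IIIB at low MOI for 24 h, washed, then exposed to compounds in RPMI plus 50% normal human serum, 0.4% DMSO. Infected cells counted at 24 and 48 h; R0 = 48 h/24 h ratio, inhibition normalised to DMSO and triple-drug control; IP from 4-parameter fit.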
row,Compound,EC50
1,"COC(=O)N[C@H](C(=O)Nc1cccc(F)c1CCC1CNC2CCCS(=O)(=O)N1C2)[C@@H](c1ccc(F)cc1)c1ccc(C(F)(F)F)cc1 (stereo partly drawn) [Example 224, Methyl [(1S)-2-({2-[2-(2,2-dioxido-2-thia-1,7-diazabicyclo[4.3.1]dec-9-yl)ethyl]-3-fluorophenyl}amino)-1-{(R)-(4-fluorophenyl)[4-(trifluoromethyl)phenyl]methyl}-2-oxoethyl]carbamate]",5.7 nM
2,"N[C@H](C(=O)Nc1cccc(F)c1CCC1CNC2CCCS(=O)(=O)N1C2)[C@@H](c1ccc(F)cc1)c1ccc2c(c1)CCC2 (stereo partly drawn) [Example 225, (2S,3S)-2-Amino-3-(2,3-dihydro-1H-inden-5-yl)-N-{2-[2-(2,2-dioxido-2-thia-1,7-diazabicyclo[4.3.1]dec-9-yl)ethyl]-3-fluorophenyl}-3-(4-fluorophenyl)propanamide]",45 nM
3,"N[C@H](C(=O)Nc1cccc(F)c1CCC1CNC2CCCS(=O)(=O)N1C2)[C@H](c1cncc(C(F)(F)F)c1)c1ccc(Cl)c(F)c1 (stereo partly drawn) [Example 227, (βS)-4-Chloro-N-{2-[2-(2,2-dioxido-2-thia-1,7-diazabicyclo[4.3.1]dec-9-yl)ethyl]-3-fluorophenyl}-3-fluoro-β-[5-(trifluoromethyl)pyridin-3-yl]-L-phenylalaninamide]",7.1 nM
4,"COC(=O)N[C@H](C(=O)Nc1ccc(F)c(F)c1CC[C@H]1CN[C@@H]2CCCS(=O)(=O)N1C2)[C@@H](c1ccc(F)cc1)C1C[C@@H](C)O[C@@H](C)C1 (stereo partly drawn) [Example 228, Methyl [(1S,2R)-2-[(2R,6S)-2,6-dimethyltetrahydro-2H-pyran-4-yl]-1-[(2-{2-[(6R,9S)-2,2-dioxido-2-thia-1,7-diazabicyclo[4.3.1]dec-9-yl]ethyl}-3,4-difluorophenyl)carbamoyl]-2-(4-fluorophenyl)ethyl]carbamate]",10 nM
5,"COC(=O)CCCN[C@H](C(=O)N[C@H]1CCC[C@@H]1CC[C@H]1CN[C@@H]2CCCS(=O)(=O)N1C2)[C@@H](c1ccc(Cl)cc1)C1CCOC(C)(C)C1 (stereo partly drawn) [Example 229, methyl 4-{[(1S,2R)-2-(4-chlorophenyl)-2-(2,2-dimethyltetrahydro-2H-pyran-4-yl)-1-{[(1S,2R)-2-{2-[(6R,9S)-2,2-dioxido-2-thia-1,7-diazabicyclo[4.3.1]dec-9-yl]ethyl}cyclopentyl]carbamoyl}ethyl]amino} butanoate]",210 nM
6,"CC1(C)CC([C@H](c2ccc(Cl)cc2)[C@H](NCCOCc2ccccc2)C(=O)N[C@H]2CCC[C@@H]2CC[C@H]2CN[C@@H]3CCCS(=O)(=O)N2C3)CCO1 (stereo partly drawn) [Example 230, (βR)-Nα-[2-(benzyloxy)ethyl]-4-chloro-β-(2,2-dimethyltetrahydro-2H-pyran-4-yl)-N-[(1S,2R)-2-{2-[(6R,9S)-2,2-dioxido-2-thia-1,7-diazabicyclo[4.3.1]dec-9-yl]ethyl}cyclopentyl]-L-phenylalaninamide]",310 nM
7,"CC1(C)CC([C@H](c2ccc(Cl)cc2)[C@H](NCCO)C(=O)N[C@H]2CCC[C@@H]2CC[C@H]2CN[C@@H]3CCCS(=O)(=O)N2C3)CCO1 (stereo partly drawn) [Example 231, (βR)-4-chloro-β-(2,2-dimethyltetrahydro-2H-pyran-4-yl)-N-[(1S,2R)-2-{2-[(6R,9S)-2,2-dioxido-2-thia-1,7-diazabicyclo[4.3.1]dec-9-yl]ethyl}cyclopentyl]-Nα-(2-hydroxyethyl)-L-phenylalaninamide]",310 nM
8,"CC1(C)CC([C@H](c2ccc(Cl)cc2)[C@H](NC(=O)CN)C(=O)N[C@H]2CCC[C@@H]2CC[C@H]2CN[C@@H]3CCCS(=O)(=O)N2C3)CCO1 (stereo partly drawn) [Example 232, glycyl-(βR)-4-chloro-β-(2,2-dimelhyltetrahydro-2H-pyran-4-yl)-N-[(1S,2R)-2-{2-[(6R,9S)-2,2-dioxido-2-thia-1,7-diazabicyclo[4.3.1]dec-9-yl]ethyl}cyclopentyl]-L-phenylalaninamide]",2500 nM
9,"N[C@H](C(=O)Nc1cncc(F)c1CC[C@H]1CN[C@@H]2CCCS(=O)(=O)N1C2)C1(c2ccc(Cl)cc2)CCOCC1 [Example 233, (2S)-2-amino-2-[4-(4-chlorophenyl)tetrahydro-2H-pyran-4-yl]-N-(4-{2-[(6R,9S)-2,2-dioxido-2-thia-1,7-diazabicyclo[4.3.1]dec-9-yl]ethyl}-5-fluoropyridin-3-yl)ethanamide]",67 nM
10,"N[C@H](C(=O)Nc1cncc(F)c1CC[C@H]1CN[C@@H]2CCCS(=O)(=O)N1C2)[C@H](c1cncc(F)c1)c1ccc(Cl)c(F)c1 [Example 234, (βS)-4-chloro-N-(4-{2-[(6R,9S)-2,2-dioxido-2-thia-1,7-diazabicyclo[4.3.1]dec-9-yl]ethyl}-5-fluoropyridin-3-yl)-3-fluoro-β-(5-fluoropyridin-3-yl)-L-phenylalaninamide]",50 nM
11,"CO[C@H]1CC[C@](c2ccc(F)cc2)([C@H](N)C(=O)Nc2cncc(F)c2CC[C@H]2CN[C@@H]3CCCS(=O)(=O)N2C3)CC1 [Example 235, (2S)-2-amino-N-(4-{2-[(6R,9S)-2,2-dioxido-2-thia-1,7-diazabicyclo[4.3.1]dec-9-yl]ethyl}-5-fluoropyridin-3-yl)-2-[trans-1-(4-fluorophenyl)-4-methoxycyclohexyl]ethanamide]",67 nM
12,"N[C@H](C(=O)Nc1cncc(F)c1CC[C@H]1CN[C@@H]2CCCS(=O)(=O)N1C2)[C@@H](c1ccc(Cl)cc1)c1cc(F)cc(F)c1 [Example 236, (βS)-β-(4-chlorophcnyl)-N-(4-{2-[(6R,9S)-2,2-dioxido-2-thia-1,7-diazabicyclo[4.3.1]dec-9-yl]ethyl}-5-fluoropyridin-3-yl)-3,5-difluoro-L-phenylalaninamide]",2.8 nM
13,"CC1(C)CC([C@H](c2ccc(Cl)cc2)[C@H](NC(=O)C(C)(C)N)C(=O)N[C@H]2CCC[C@@H]2CC[C@H]2CN[C@@H]3CCCS(=O)(=O)N2C3)CCO1 (stereo partly drawn) [Example 237, 2-methylalanyl-(βR)-4-chloro-β-(2,2-dimethyltetrahydro-2H-pyran-4-yl)-N-[(1S,2R)-2-{2-[(6R,9S)-2,2-dioxido-2-thia-1,7-diazabicyclo[4.3.1]dec-9-yl]ethyl}cyclopentyl]-L-phenylalaninamide]",150 nM
14,"CC(C)[C@H](c1ccc(Cl)cc1)[C@H](N)C(=O)Nc1cncc(F)c1CC[C@H]1CN[C@@H]2CCCS(=O)(=O)N1C2 [Example 238, (2S,3R)-2-amino-3-(4-chlorophenyl)-N-(4-(2-((6R,9S)-2,2-dioxido-2-thia-1,7-diazabicyclo[4.3.1]decan-9-yl)ethyl)-5-fluoropyridin-3-yl)-4-methylpentanamide]",13 nM
15,"CO[C@H]1CC[C@H]([C@H](c2ccc(Cl)cc2)[C@H](N)C(=O)Nc2cncc(F)c2CC[C@H]2CN[C@@H]3CCCS(=O)(=O)N2C3)CC1 [Example 239, (2S,3R)-2-amino-3-(4-chlorophenyl)-N-(4-(2-((6R,9S)-2,2-dioxido-2-thia-1,7-diazabicyclo[4.3.1]decan-9-yl)ethyl)-5-fluoropyridin-3-yl)-3-((1r,4R)-4-methoxycyclohexyl)propanamide]",5.6 nM
16,"N[C@H](C(=O)Nc1cncc(F)c1CC[C@H]1CN[C@@H]2CCCS(=O)(=O)N1C2)[C@@H](c1ccc(Cl)cc1)C1CCC(F)(F)CC1 [Example 241, (2S,3R)-2-amino-3-(4-chlorophenyl)-3-(4,4-difluorocyclohexyl)-N-(4-(2-((6R,9S)-2,2-dioxido-2-thia-1,7-diazabicyclo[4.3.1]decan-9-yl)ethyl)-5-fluoropyridin-3-yl)propanamide]",7.3 nM
17,"CCC(CC)[C@H](c1ccc(Cl)cc1)[C@H](N)C(=O)Nc1cncc(F)c1CC[C@H]1CN[C@@H]2CCCS(=O)(=O)N1C2 [Example 242, (2S,3R)-2-amino-3-(4-chlorophenyl)-N-(4-(2-((6R,9S)-2,2-dioxido-2-thia-1,7-diazabicyclo[4.3.1]decan-9-yl)ethyl)-5-fluoropyridin-3-yl)-4-ethylhexanamide]",17 nM
18,"CC1(C)C[C@@H]([C@H](c2ccc(Cl)c(F)c2)[C@H](N)C(=O)Nc2cncc(F)c2CC[C@H]2CN[C@@H]3CCCS(=O)(=O)N2C3)CCO1 [Example 243, (2S,3R)-2-amino-3-(4-chloro-3-fluorophenyl)-3-((S)-2,2-dimethyltetrahydro-2H-pyran-4-yl)-N-(4-(2-((6R,9S)-2,2-dioxido-2-thia-1,7-diazabicyclo[4.3.1]decan-9-yl)ethyl)-5-fluoropyridin-3-yl)propanamide]",8 nM
19,"N[C@H](C(=O)Nc1cncc(F)c1CC[C@H]1CN[C@@H]2CCCS(=O)(=O)N1C2)[C@@H](c1ccc(Cl)c(F)c1)C1CCCCC1 [Example 244, (2S,3R)-2-amino-3-(4-chloro-3-fluorophenyl)-3-cyclohexyl-N-(4-(2-((6R,9S)-2,2-dioxido-2-thia-1,7-diazabicyclo[4.3.1]decan-9-yl)ethyl)-5-fluoropyridin-3-yl)propanamide]",4.3 nM
20,"C[C@@H]1CC([C@H](c2ccc(Cl)c(F)c2)[C@H](N)C(=O)Nc2cncc(F)c2CC[C@H]2CN[C@@H]3CCCS(=O)(=O)N2C3)C[C@H](C)O1 (stereo partly drawn) [Example 245, (2S,3R)-2-amino-3-(4-chloro-3-fluorophenyl)-3-((2R,6S)-2,6-dimethyltetrahydro-2H-pyran-4-yl)-N-(4-(2-((6R,9S)-2,2-dioxido-2-thia-1,7-diazabicyclo[4.3.1]decan-9-yl)ethyl)-5-fluoropyridin-3-yl)propanamide]",5.8 nM
21,"CC(F)(F)c1ccc([C@H](c2ccc(Cl)cc2)[C@H](N)C(=O)Nc2cncc(F)c2CC[C@H]2CN[C@@H]3CCCS(=O)(=O)N2C3)cn1 [Example 246, (2S,3R)-2-amino-3-(4-chlorophenyl)-3-(6-(1,1-difluoroethyl)pyridin-3-yl)-9-(4-(2-((6R,9S)-2,2-dioxido-2-thia-1,7-diazabicyclo[4.3.1]decan-9-yl)ethyl)-5-fluoropyridin-3-yl)propanamide]",19 nM
